This is an account of results in patent US12139488B2, “Pyrido[3,2-d]pyrimidine compounds uses thereof for treating a proliferative disease” (Universite de Montreal, priority 2021, dated 2024).

For assay [1], the system named is pERK in SW480 cells (KRAS G12D). Put plainly: Phospho-ERK inhibition (AlphaLISA), SW480. Conditions: SW480 cells; for SW480 pERK Ymin %: Ymin in brackets; for IC50: class symbol before the bracket. In kind it is cell-based, human. On the procedure: (§1) All cancer cell lines (A375, A101D, A2058, RKO, HT29 SK-MEL 30, IPC298, HepG2, HCT-116, Lovo, SWV620, SW480, NCI-H358, NCI-H2122, Calu-6, NCIH2087, NCIH1755, NCIH1666 and Mewo) were obtained from ATCC and cultured in RPMI-1640 medium (Gibco) supplemented with 5% heat inactivated fetal bovine serum (FBS, Wisent) at 37° C. under 5% CO2. Cells were maintained in T175 flasks (Greiner). They were passaged by removing the culture medium, washing once in 10 mL of room temperature Phosphate Buffered Saline (PBS; Wisent) and incubating at 37° C. with 2 mL of 0.05% Trypsin (Thermo-Fisher). Trypsin was then inactivated by adding complete growth medium and the cells were then replated in a T175 culture dish at the appropriate dilution. All cell lines were routinely tested for mycoplasma contamination. Tissue type and mutational status of each cell line can be found in Table B.
(§2) AlphaLISA® SureFire® Ultra™ p-ERK 1/2 (Thr202/Tyr204) analysis was conducted on cells plated in 100 μL of complete RPMI-1640 growth medium in 96-well flat-bottomed transparent dishes (Costar) at a density indicated in Table C. Cells were maintained overnight at 37° C. under 5% CO2 before treatment with compounds' dilution series for one hour. The cell density in cells/cm^2 corresponds to cell number divided by the area of one well of a 96-well plate ([…]).
(§3) In a dilution series 100 μL/well of test substance dilution prepared in complete RPMI-1640 growth media was added to the cells. The dilution series is selected so that ten concentrations cover a range from 10 μM to 0.33 nM. If necessary the initial concentration of 10 μM is increased to 100 μM or lowered to 1 μM (as in the case of A375 and H1666 cells, which are generally more sensitive to the compounds) and further dilution is carried out accordingly. The final concentration of DMSO in the assay is set at 0.5%.
(§4) After treatment, media was removed and cells were lysed in 50 μL of 1× AlphaScreen Ultra Lysis Buffer (Perkin Elmer). The AlphaLISA® SureFire® Ultra™ p-ERK 1/2 (Thr202/Tyr2O4) (PerkinElmer) reactions were performed with 5 μL of cell lysate according to the manufacturer's specifications in 384-well proxyplates (Perkin Elmer) followed by overnight incubation of the reactions at room temperature in a humidified chamber. After completion of the reactions, the signals were recorded on an EnVision plate reader (Perkin Elmer) using built in AlphaLISA® settings.
(§5) The effect of each compound dilution on the pERK signal was expressed in % inhibition and calculated as follows. An internal 100% inhibition control ([…] trametinib, cat #HY-10999; MedChem Express; CAS #871700-17-3) was included in each plate and used as a measure of pERK background. First, the value obtained for trametinib was subtracted from each data point. The average of DMSO (vehicle) controls (set as 0% inhibition) was established and used to calculate % inhibition: % inhibition=100*(1-((pERK signalcompound)/(pERK signalDMSO)))
(§6) The ability of each compound to inhibit pERK signal was expressed as an IC50 value obtained by plotting the inhibition values for each data point of a dilution series and fitting the obtained curves using a log(agonist) versus response-variable slope (four parameters) function using GraphPadPrism (V7.0) or Dotmatics Screening Ultra platform.
(§7) When present, paradoxical pERK induction is inferred from the negative % inhibition values observed in the pERK IC50 curves of a compound.
For orientation: Alpha assays give light when donor and acceptor beads are brought close together.

Assay [2] concerns pERK in HCT-116 cells (KRAS G13D). Kind of assay: Phospho-ERK inhibition (AlphaLISA SureFire Ultra p-ERK 1/2), HCT116. In kind it is cell-based, human. On the procedure:
as §1, §2, §3, §4, §5, §6, §7

[3] abbreviates: HCT116 cells, class symbol before the bracket.

By IC50 is commonly meant the concentration that inhibits the measured activity by half. Read a high IC50 as weaker potency in that assay.

`Cc1c([N+](=O)[O-])ncn1-c1ccc2ncnc(Nc3c(F)ccc(NS(=O)(=O)c4ccccc4Cl)c3F)c2n1` [Ex 82]: in assay [1], the “SW480 pERK Ymin %” value worked out at 2% and the concentration for half-maximal inhibition (IC50) was 1000 to 10000 nM. For the same compound, the “HCT116 pERK Ymin %” value in assay [2] (HCT116 cells, Ymin in brackets) is listed as −5%. Also, the IC50 in assay [2] (setting [3]) is 1000 to 10000 nM.
In the case of `N#Cc1ccc(-c2ccc3ncnc(Nc4c(F)ccc(NS(=O)(=O)c5ccccc5Cl)c4F)c3n2)cc1` [Ex 78], the “SW480 pERK Ymin %” value in assay [1] is recorded as 1%. Besides, the IC50 in assay [1] and in assay [2] (setting [3]) was 1000 to 10000 nM throughout. Also, in assay [2] (HCT116 cells, Ymin in brackets), the “HCT116 pERK Ymin %” value is given as −9%.
Take `Nc1cccc2c1nnn2-c1ccc2ncnc(Nc3c(F)ccc(NS(=O)(=O)c4ccccc4Cl)c3F)c2n1` [Example 92]: in assay [1], the “SW480 pERK Ymin %” value was determined as 18% and the half-inhibitory concentration (IC50) was less than 500 nM. Further, in assay [2] (HCT116 cells, Ymin in brackets), the “HCT116 pERK Ymin %” value was −4.6%. For the same compound, in assay [2] (setting [3]), the IC50 is less than 500 nM.
As to `COc1ccc(S(=O)(=O)Nc2ccc(F)c(Nc3ncnc4ccc(-c5cnc6ccccc6c5)nc34)c2F)c(C)c1` [Ex 61], in assay [1], the “SW480 pERK Ymin %” value was 3% and the 50% inhibitory concentration (IC50) fell in the range of 1000 to 10000 nM. Moreover, in assay [2] (HCT116 cells, Ymin in brackets), the “HCT116 pERK Ymin %” value is given as −8%. In assay [2] (setting [3]), this compound came in with an IC50 of 1000 to 10000 nM.
Turning to `COc1ccc(S(=O)(=O)Nc2ccc(F)c(Nc3ncnc4ccc(-c5cnn(C)c5)nc34)c2F)c(C)c1` [Ex 65], the “SW480 pERK Ymin %” value in assay [1] is listed as 14%. Further, the values for the half-inhibitory concentration (IC50) in assay [1] and in assay [2] (setting [3]) were 500 to 1000 nM and 10000 to 30000 nM, respectively. Further, in assay [2] (HCT116 cells, Ymin in brackets), the “HCT116 pERK Ymin %” value is −7%.
Taken in the same sequence, the figures for `O=C(c1cn(-c2ccc3ncnc(Nc4c(F)ccc(NS(=O)(=O)c5ccccc5Cl)c4F)c3n2)c2ccccc12)N1CCOCC1` [Example 109] were −6.4%, less than 500 nM, less than 500 nM and −1.7%.
Consider `COc1ccc(S(=O)(=O)Nc2ccc(F)c(Nc3ncnc4ccc(-c5ccncc5)nc34)c2F)c(C)c1` [Ex 63], for which the “SW480 pERK Ymin %” value in assay [1] was 10%. The 50% inhibitory concentration (IC50) is less than 500 nM in assay [1] and 1000 to 10000 nM in assay [2] (setting [3]). The “HCT116 pERK Ymin %” value in assay [2] (HCT116 cells, Ymin in brackets) is −2.1%.
The corresponding values for `COc1ccc(S(=O)(=O)Nc2ccc(F)c(Nc3ncnc4ccc(-n5cc(C(N)=O)c6ccccc65)nc34)c2F)c(C)c1` [Example 69] are 3%, 1000 to 10000 nM, 1000 to 10000 nM and −1%.
In assay [2] (HCT116 cells, class symbol), `Cc1c(F)cccc1S(=O)(=O)Nc1ccc(F)c(Nc2ncnc3ccc(-n4cc5c(n4)CCCN5CCCO)nc23)c1F` [Example 391] returned an IC50 of 1000 to 10000 nM.
Same read-out and setting: in the case of `COc1cccc2c1ncn2-c1ccc2ncnc(Nc3c(F)ccc(NS(=O)(=O)c4cccc(Cl)c4Cl)c3F)c2n1` [Ex 449] it was less than 500 nM.
Regarding `Cc1c(F)cccc1S(=O)(=O)Nc1ccc(F)c(Nc2ncnc3ccc(-n4ncc5c4CN(CCN)CC5)nc23)c1F` [Example 415], in assay [2] (HCT116 cells, class symbol), the IC50 lay in the range of 500 to 1000 nM.
For the compound `O=S(=O)(Nc1ccc(F)c(Nc2ncnc3ccc(-n4cnc5c4CCCC5)nc23)c1F)c1cccc(Cl)c1Cl` [Ex 463], the half-maximal inhibitory concentration (IC50) in assay [2] (HCT116 cells, class symbol) is 500 to 1000 nM.
Still for that read-out and setting: in the case of `O=C1CCCN1c1cn(-c2ccc3ncnc(Nc4c(F)ccc(NS(=O)(=O)c5cccc(Cl)c5Cl)c4F)c3n2)c2ccccc12` [Example 511] it was less than 500 nM.
On the same count and under the same terms, the figure for `Cc1c(F)cccc1S(=O)(=O)Nc1ccc(F)c(Nc2ncnc3ccc(-n4ncc5c4CN(CCO)CC5)nc23)c1F` [Example 339] is less than 500 nM; for `CC(=O)NCCN1CCCc2nn(-c3ccc4ncnc(Nc5c(F)ccc(NS(=O)(=O)c6cccc(F)c6C)c5F)c4n3)cc21` [Example 383] it is 1000 to 10000 nM; for `C[C@@H]1CN(C)C[C@H](C)N1S(=O)(=O)c1cn(-c2ccc3ncnc(Nc4c(F)ccc(NS(=O)(=O)c5cccc(Cl)c5Cl)c4F)c3n2)c2ccccc12` [Ex 459] it is less than 500 nM.
`Cc1c(Cl)cccc1S(=O)(=O)Nc1cccc(Nc2ncnc3ccc(-n4nc(C(=O)N5CCOCC5)c5ccccc54)nc23)c1F` [Example 241] displayed a half-inhibitory concentration (IC50) in assay [2] (HCT116 cells, Table 5) of 1000 to 10000 nM. Besides, the “HCT116 pERK Ymin %” value in assay [2] (lowest value of the curve, HCT116, Table 5) was −0.9%.
